Measured values: the supplement of paper PMC10290057
Structures can show the parent of a compound that is named as a salt.

Tests used:
HCT116 [1] = experiment: AC50 cell viability (CellTiter-Glo); higher = less potent; settings: 48 h
HCT116 [2] = experiment: efficacy (fitted maximal change in viability relative to DMSO control); higher = less cytotoxic (negative = loss of viability); settings: 48 h
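Throughout, for AC50 cell viability (CellTiter-Glo): HCT116 colorectal carcinoma cells screened at five concentrations per compound, luminescent viability scaled between DMSO wells and empty wells on each plate, curves fitted per compound.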
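Throughout, for efficacy (fitted maximal change in viability relative to DMSO control): Luminescence-based viability readout, five doses per compound, normalized against on-plate DMSO and empty-well controls, followed by dose-response curve fitting for every drug.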

Compound	AC50 cell viability (HCT116 [1])	efficacy (HCT116 [2])
COC(=O)/C=C/C(=O)N(O)CCCCNCc1ccc(COC(=O)Nc2cccc3ccccc23)cc1 [Methylstat]	20.9 µM	-84.5%
CC[C@H](C)C(=O)O[C@H]1CC\C=C2\C=C/[C@H](C)[C@H](CC[C@@H]3C[C@@H](O)CC(=O)O3)[C@@H]12 [Mevastatin]	14.8 µM	-58.3%
Clc1ccc(COC(Cn2ccnc2)c2ccc(Cl)cc2Cl)c(Cl)c1 (stereo not drawn) [Miconazole nitrate]	20.9 µM	-97.9%
CO[C@@H]1[C@H](N(C)C(=O)c2ccccc2)C[C@H]2O[C@]1(C)n1c3ccccc3c3c4c(c5c6ccccc6n2c5c31)C(=O)NC4 [Midostaurin]	1.48 µM	-62.7%
CC1(C)CCC2(CC1)N[C@@H](C(=O)N[C@@H]1CC[C@@H](C(N)=O)OC1)[C@H](c1ccnc(Cl)c1F)[C@]21C(=O)Nc2cc(Cl)ccc21 [Milademetan]	4.02 µM	-129%
CNC(=O)c1nn(C)c2c1C(C)(C)Cc1cnc(Nc3ccc(N4CCN(C)CC4)cc3)nc1-2 [Milciclib]	0.525 µM	-63.4%
Nc1ncccc1-c1nc2ccc(-c3ccccc3)nc2n1-c1ccc(C2(N)CCC2)cc1 [Miransertib]	14.8 µM	-126%
O=C1c2c(O)ccc(O)c2C(=O)c2c(NCCNCCO)ccc(NCCNCCO)c21 [Mitoxantrone]	1.18 µM	-91.4%
CC[S+]([O-])(=O)NC1=CC(=C(OC2=C(F)C=C(F)C=C2)C=C1)\C3=C\N(C)C(=O)C4=C3C=C[NH]4 [Mivebresib (ABBV-075)]	0.0525 µM	-97.5%
Nc1ccccc1NC(=O)c1ccc(CNc2nccc(-c3cccnc3)n2)cc1 [Mocetinostat]	0.934 µM	-73.2%
NC/1=N/C(=O)C/2=C(/NCC3CN(CN23)C4=CC=C(C=C4)C(=O)N[C@@H](CCC(O)=O)C(O)=O)N1 (stereo partly drawn) [Modufolin]	8.33 µM	-92%
N#CCNC(=O)c1ccc(-c2ccnc(Nc3ccc(N4CCOCC4)cc3)n2)cc1 [Momelotinib]	3.72 µM	-74.3%
C[C@@H]1C[C@H]2[C@@H]3CC\C4=C\C(=O)\C=C/[C@]4(C)[C@@]3(Cl)[C@@H](O)C[C@]2(C)[C@@]1(OC(=O)C5=CC=CO5)C(=O)CCl [Mometasone furoate]	20.9 µM	-78.7%
CC[C@@]1([C@@H]2O[C@@H]([C@H]3O[C@@](O)(CO)[C@H](C)C[C@@H]3C)C[C@@H]2C)CC[C@H]([C@]2(C)CC[C@]3(C[C@H](O)[C@@H](C)[C@@H]([C@@H](C)[C@@H](OC)[C@H](C)C(=O)[O-])O3)O2)O1 [Monensin sodium salt]	0.456 µM	-47.4%
Oc1ccc(OCc2ccccc2)cc1 [Monobenzone]	18.6 µM	-47.7%
CCCN(CCC)C(=O)C\1=C\C2=CC=C(C=C2\N=C(N)/C1)C3=CC=C(C=C3)C(=O)N4CCCC4 [Motolimod]	18.6 µM	-45.8%
FC(F)(F)c1ccc(/C=C/c2nc(COc3ccc(CCCCn4ccnn4)cc3)co2)cc1 [Mubritinib]	0.0209 µM	-38.5%
COc1c(C)c2c(c(O)c1C/C=C(\C)CCC(=O)OCCN1CCOCC1)C(=O)OC2 [Mycophenolate mofetil]	2.63 µM	-80.7%
COc1c(C)c2c(c(O)c1C/C=C(\C)CCC(=O)O)C(=O)OC2 [Mycophenolic acid]	2.09 µM	-82%
CC(C)(O)C[S+](=O)([O-])Nc1ccc2c(c1)CCN(C(=O)COc1cccnc1)C2 [NAMPT-IN-1]	0.0468 µM	-92.6%
O[C@H]1CC[C@@H](Oc2cccc3cnc(Nc4ccc5nc[nH]c5c4)nc23)CC1 [NCB-1026]	0.525 µM	-64.6%
COc1ccc(Nc2cc(-c3cnc(N)nc3)nc(N3CCOCC3)n2)cn1 [NIBR-17]	2.63 µM	-65.5%
[O-][S+]1(=O)/N=C(/NC2=CC(=CC=C2)NC(=O)CCl)C3=CC=CC=C13 [NMS-859]	26.3 µM	-85.1%
Cc1cc(OCc2nnc(SC3CCCC3)n2-c2cccnc2)ccc1-c1ccc([S+](C)(=O)[O-])cc1 [NMS-873]	1.48 µM	-104%
CN1CCN(c2ccc(OC(F)(F)F)c(Nc3ncc4c(n3)-c3c(c(C(N)=O)nn3CCO)CC4)c2)CC1 [NMS-P937]	0.0661 µM	-63.9%
CN\1N(C(=O)\C(=C1C)C(=O)NC2=CC=C(OC3=CC=NC4=C3C(=C[NH]4)C5=CC=CC=C5)C(=C2)F)C6=CC=C(F)C=C6 [NPS-1034]	14.8 µM	-59.9%
CC(C)(Cc1ccc2ccccc2c1)NC[C@@H](O)COc1cccc(Cl)c1C#N [NPS-2143]	9.34 µM	-97.5%

Compound	AC50 cell viability (HCT116 [1])	efficacy (HCT116 [2])
COc1cccc([C@@H](C)NCCCc2ccccc2Cl)c1 [NPS-R568]	23.5 µM	-99.8%
Nc1nc(N)c(N=O)c(OCC2CCCCC2)n1 [NU-6027]	13.2 µM	-64.3%
N[S+](=O)([O-])c1ccc(Nc2nc(OCC3CCCCC3)c3[nH]cnc3n2)cc1 [NU-6102]	16.6 µM	-92.8%
O=C1\C=C(OC2=C(C=CC=C12)C3=CC=CC4=C3SC5=C4C=CC=C5)\N6CCOCC6 [NU-7441]	3.72 µM	-76.8%
Nc1ncnc2c1c(-c1cccc(OCc3ccccc3)c1)cn2[C@H]1C[C@@H](CN2CCC2)C1 [NVP-AEW541]	5.9 µM	-85.2%
CCNC(=O)c1noc(-c2cc(C(C)C)c(O)cc2O)c1-c1ccc(CN2CCOCC2)cc1 [NVP-AUY922]	0.105 µM	-63.2%
COc1ccc(-c2ccc3ncc4c(c3c2)n(-c2ccc(N3CCNCC3)c(C(F)(F)F)c2)c(=O)n4C)cn1 [NVP-BGT226]	0.295 µM	-117%
Cc1ccc(C(=O)Nc2cccc(C(F)(F)F)c2)cc1Nc1nc(-c2cccnc2)nc2c1cnn2C [NVP-BHG712]	8.33 µM	-103%
Fc1cc(-c2cccc3ncc(-c4cnn(C5CCNCC5)c4)nc23)cc(F)c1CN1CCOCC1 [NVP-BSK805]	8.33 µM	-91%
Cn1cc(-c2ccc3ncc(Cc4ccc5ncccc5c4)n3n2)cn1 [NVP-BVU-972]	18.6 µM	-40.8%
C[S+](=O)([O-])N1CCC(NC(=O)c2[nH]ncc2NC(=O)c2c(Cl)cccc2Cl)CC1 [NVP-LCQ195]	0.525 µM	-64.2%
CNC(=O)c1ccccc1Nc1nc(Nc2ccc(N3CCOCC3)cc2OC)ncc1Cl [NVP-TAE226]	0.833 µM	-77.8%
CCC[S+](=O)([O-])c1nc(NC2CC2)cc(-c2ccc3c(ccn3C3CC(C)(C)NC(C)(C)C3)c2)n1 [NVS-CECR2-1]	2.78 µM	-93.7%
COc1ccccc1N1CCN(CC(O)COc2cccc3ccccc23)CC1 (stereo not drawn) [Naftopidil]	18.6 µM	-57.2%
CNC(=O)[C@H]1O[C@@H](n2cnc3c(NCc4cccc(I)c4)nc(Cl)nc32)[C@H](O)[C@@H]1O [Namodenoson]	23.5 µM	-94.8%
CO[C@H]1CCC(O[C@H]2C[C@H]([C@]3(C)CC[C@]4(C[C@H](O)[C@@H](C)[C@@H]([C@@H](C)/C=C(\C)C(=O)[C@H](C)C[C@H](C)C(=O)[O-])O4)O3)O[C@]3(O[C@@H]([C@H]4O[C@@](O)(CO)[C@H](C)C[C@@H]4C)C[C@@H]3C)[C@@H]2C)O[C@@H]1C (stereo partly drawn) [Nanchangmycin]	2.95 µM	-101%
CC(=O)c1cc2c(o1)C(=O)c1ccccc1C2=O [Napabucasin]	0.934 µM	-93.8%
C=CC(=O)N1CC[C@@H](Oc2nc(Nc3ccc(N4CCC(N5CCN(C)CC5)CC4)cc3)c(C(N)=O)nc2CC)C1 [Naquotinib mesylate]	3.23 µM	-103%
CC1(C)CCC(=C(CN2CCN(CC2)C3=CC=C(C=C3)C(=O)N[S+]([O-])(=O)C4=CC(=C(N[C@H](CCN5CCOCC5)CSC6=CC=CC=C6)C=C4)[S+]([O-])(=O)C(F)(F)F)\C1)/C7=CC=C(Cl)C=C7 [Navitoclax (ABT-263)]	13.2 µM	-90.7%
Cc1c(O)cccc1C(=O)NC(CSc1ccccc1)C(O)CN1CC2CCCCC2CC1C(=O)NC(C)(C)C (stereo not drawn) [Nelfinavir]	20.9 µM	-101%
COc1cccc2c1C(=O)c1c(O)c3c(c(O)c1C2=O)C[C@@](O)(C(=O)CO)CC3OC1CC(N2CCOC(OC)C2)C(O)C(C)O1 (stereo partly drawn) [Nemorubicin]	0.0263 µM	-66%
CCOc1cc2ncc(C#N)c(Nc3ccc(OCc4ccccn4)c(Cl)c3)c2cc1NC(=O)/C=C/CN(C)C [Neratinib]	2.35 µM	-72.5%
Cc1ccc(C(=O)OCc2ccc([C@@H](CN)C(=O)Nc3ccc4cnccc4c3)cc2)c(C)c1 [Netarsudil]	8.11 µM	-108%
O=C(Nc1ccc([N+](=O)[O-])cc1Cl)c1cc(Cl)ccc1O [Niclosamide]	1.05 µM	-90.8%
COC(=O)C/1=C(C)/N/C(=C(\C1C2=CC(=CC=C2)[N+]([O-])=O)C(=O)OCCCN3CCC(CC3)(C4=CC=CC=C4)C5=CC=CC=C5)C (stereo not drawn) [Niguldipine]	8.33 µM	-98.1%
Cc1cn(-c2cc(NC(=O)c3ccc(C)c(Nc4nccc(-c5cccnc5)n4)c3)cc(C(F)(F)F)c2)cn1 [Nilotinib]	1.66 µM	-46.8%
COC(=O)c1ccc2c(c1)NC(=O)/C2=C(\Nc1ccc(N(C)C(=O)CN2CCN(C)CC2)cc1)c1ccccc1 [Nintedanib]	5.9 µM	-92.2%
